Consider ten compounds from ChEMBL document CHEMBL4265900, “Discovery of the bifunctional modulator of angiotensin II type 1 receptor (AT1R) and PPARγ derived from the AT1R antagonist, Fimasartan” (Bioorg Med Chem Lett, 2018).

The target of data set [1] is T1, Type-1 angiotensin II receptor (Homo sapiens) (UniProt P30556).
T1 sequence (whole entry): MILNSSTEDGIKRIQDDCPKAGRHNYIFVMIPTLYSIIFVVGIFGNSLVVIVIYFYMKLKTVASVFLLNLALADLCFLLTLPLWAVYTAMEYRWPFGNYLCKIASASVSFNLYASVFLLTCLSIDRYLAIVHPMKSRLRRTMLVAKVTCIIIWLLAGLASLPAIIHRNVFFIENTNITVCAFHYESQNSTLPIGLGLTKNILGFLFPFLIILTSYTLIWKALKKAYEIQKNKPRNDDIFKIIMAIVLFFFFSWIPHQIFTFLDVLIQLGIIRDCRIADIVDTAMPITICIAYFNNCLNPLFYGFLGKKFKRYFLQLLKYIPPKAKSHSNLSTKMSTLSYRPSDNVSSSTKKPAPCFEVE
The experiment in a line: Antagonist activity at type-1 angiotensin 2 receptor (unknown origin) at 20 nM by calcium mobilizing assay relative to fimasartan. Type of data set: functional.

Data set [2] concerns the target T2, Peroxisome proliferator-activated receptor gamma (Homo sapiens) (UniProt P37231).
T2 sequence (whole entry): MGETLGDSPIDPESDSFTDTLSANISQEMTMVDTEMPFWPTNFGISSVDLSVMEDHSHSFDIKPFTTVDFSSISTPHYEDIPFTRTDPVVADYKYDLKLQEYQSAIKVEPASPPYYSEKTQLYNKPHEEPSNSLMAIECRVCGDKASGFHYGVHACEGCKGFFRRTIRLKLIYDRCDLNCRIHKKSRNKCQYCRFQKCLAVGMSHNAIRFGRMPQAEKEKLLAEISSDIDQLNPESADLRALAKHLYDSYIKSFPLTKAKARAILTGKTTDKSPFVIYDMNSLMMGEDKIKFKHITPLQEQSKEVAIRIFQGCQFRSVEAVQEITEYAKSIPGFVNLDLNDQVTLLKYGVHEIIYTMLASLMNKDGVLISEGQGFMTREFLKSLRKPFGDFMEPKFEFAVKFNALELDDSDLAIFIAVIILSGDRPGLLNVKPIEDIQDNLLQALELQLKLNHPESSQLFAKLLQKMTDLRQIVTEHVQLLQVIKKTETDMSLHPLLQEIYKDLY
The experiment in a line: Agonist activity at PPARgamma (unknown origin) at 1 uM relative to telmisartan.

The target of data set [3] is T3, Type-1 angiotensin II receptor (Homo sapiens, UniProt P30556).
T3 sequence (P30556 whole entry): T1 sequence (whole entry)
Put plainly: Antagonist activity at type-1 angiotensin 2 receptor (unknown origin) by calcium mobilizing assay. Type of data set: functional.

Data set [4] is described as follows: Tmax in mouse at 60 mg/kg, po. It is filed as ADME, organism-based. The conditions noted are these: in vivo.
Data set [5] in a line: Tmax in rat at 60 mg/kg, po. It is filed as ADME, organism-based. The conditions noted are these: in vivo.
Data set [6] in a line: AUClast in mouse at 60 mg/kg, po. More on the design: dose 60 mg/kg, time 0 - last, route oral. The conditions noted are these: in vivo. It is filed as ADME, organism-based.
The nature of data set [7]: AUClast in rat at 60 mg/kg, po. Type of data set: ADME, organism-based. Further details: dose 60 mg/kg, time 0 - last, route oral. The conditions noted are these: in vivo.
The target of data set [8] is T4, Peroxisome proliferator-activated receptor gamma (Homo sapiens, UniProt P37231).
T4 sequence (P37231 whole entry): T2 sequence (whole entry)
The experiment in a line: Agonist activity at PPARgamma (unknown origin).

The target of a further data set is CYP2D6 (Homo sapiens, UniProt P10635). The experiment in a line: Inhibition of CYP2D6 (unknown origin) assessed as remaining activity at 10 uM. Type of data set: ADME. The note with it: read-out: Activity.
CYP2D6, sequence (P10635 whole entry): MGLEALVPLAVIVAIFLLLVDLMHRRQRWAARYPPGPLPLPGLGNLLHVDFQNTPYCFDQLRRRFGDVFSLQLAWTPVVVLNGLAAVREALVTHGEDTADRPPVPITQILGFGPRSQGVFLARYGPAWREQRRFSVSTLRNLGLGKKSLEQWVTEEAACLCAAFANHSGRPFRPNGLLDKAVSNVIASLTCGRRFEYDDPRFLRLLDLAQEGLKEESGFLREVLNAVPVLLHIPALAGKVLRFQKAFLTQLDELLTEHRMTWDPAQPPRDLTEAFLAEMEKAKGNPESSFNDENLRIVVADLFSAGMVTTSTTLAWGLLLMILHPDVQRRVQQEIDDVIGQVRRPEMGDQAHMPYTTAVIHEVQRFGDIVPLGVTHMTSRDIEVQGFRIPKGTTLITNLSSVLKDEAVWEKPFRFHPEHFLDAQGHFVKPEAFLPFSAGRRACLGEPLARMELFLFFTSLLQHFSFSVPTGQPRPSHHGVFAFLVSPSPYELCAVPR
In data set [9] the target is T2, Peroxisome proliferator-activated receptor gamma (Homo sapiens). Put plainly: Agonist activity at PPARgamma (unknown origin) at 1 uM relative to pioglitazone.
A short description of data set [10]: Cmax in mouse at 60 mg/kg, po. It is filed as ADME, organism-based. More on the design: dose 60 mg/kg, route oral. The note with it: in vivo.
Data set [11] can be described thus: Stability in rat liver microsomes assessed as compound remaining after 30 mins. Type of data set: ADME, microsome. The conditions noted are these: read-out: Stability. (In general: Microsomes from liver hold many membrane-bound enzymes, among them those of drug oxidation.)
Data set [12] in a line: Ratio of AUClast in rat at 60 mg/kg, po to AUClast in mouse at 60 mg/kg, po. It is filed as ADME, organism-based. The note with it: in vivo.
Data set [13] deals with Rattus norvegicus. The experiment in a line: Antihypertensive activity in angiotensin 2 induced hypertension rat model at 30 mg/kg, po measured until 8 hrs post dose. It is filed as functional, organism-based.
Data set [14] in a line: Half life in mouse at 60 mg/kg, po. It is filed as ADME, organism-based. The note with it: in vivo.
Data set [15] concerns Mus musculus. The experiment in a line: Toxicity in db/db mouse model assessed as suppression of weight gain at 60 mg/kg, po qd measured after 11 days. It is filed as organism-based. The conditions noted are these: in vivo, 264 h.
The target of the next data set is CYP3A4 (Homo sapiens, UniProt P08684). Put plainly: Inhibition of CYP3A4 (unknown origin) assessed as remaining activity at 10 uM. It is filed as ADME. The note with it: read-out: Activity.
CYP3A4, sequence (P08684 whole entry): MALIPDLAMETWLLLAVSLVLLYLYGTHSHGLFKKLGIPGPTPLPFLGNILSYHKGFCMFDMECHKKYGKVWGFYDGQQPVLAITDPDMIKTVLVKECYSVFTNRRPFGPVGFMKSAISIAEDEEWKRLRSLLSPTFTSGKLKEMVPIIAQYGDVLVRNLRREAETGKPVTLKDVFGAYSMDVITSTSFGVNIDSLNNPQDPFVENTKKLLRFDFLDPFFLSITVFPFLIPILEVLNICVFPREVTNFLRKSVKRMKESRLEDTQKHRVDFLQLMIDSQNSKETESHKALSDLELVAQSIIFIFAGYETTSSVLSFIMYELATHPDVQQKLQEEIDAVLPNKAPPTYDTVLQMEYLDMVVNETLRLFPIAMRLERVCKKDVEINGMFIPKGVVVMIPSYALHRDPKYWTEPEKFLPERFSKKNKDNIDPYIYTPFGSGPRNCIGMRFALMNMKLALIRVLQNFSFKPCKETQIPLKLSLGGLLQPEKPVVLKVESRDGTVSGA
In data set [16] the test system is Rattus norvegicus. The experiment in a line: Antihypertensive activity in angiotensin 2 induced hypertension rat model assessed as time required for 50% reduction in blood pressure at 30 mg/kg, po. It is filed as functional.
The target of another data set is CYP2C9 (Homo sapiens, UniProt P11712). Put plainly: Inhibition of CYP2C9 (unknown origin) assessed as remaining activity at 10 uM. The conditions noted are these: read-out: Activity. It is filed as ADME.
CYP2C9, sequence (P11712 whole entry): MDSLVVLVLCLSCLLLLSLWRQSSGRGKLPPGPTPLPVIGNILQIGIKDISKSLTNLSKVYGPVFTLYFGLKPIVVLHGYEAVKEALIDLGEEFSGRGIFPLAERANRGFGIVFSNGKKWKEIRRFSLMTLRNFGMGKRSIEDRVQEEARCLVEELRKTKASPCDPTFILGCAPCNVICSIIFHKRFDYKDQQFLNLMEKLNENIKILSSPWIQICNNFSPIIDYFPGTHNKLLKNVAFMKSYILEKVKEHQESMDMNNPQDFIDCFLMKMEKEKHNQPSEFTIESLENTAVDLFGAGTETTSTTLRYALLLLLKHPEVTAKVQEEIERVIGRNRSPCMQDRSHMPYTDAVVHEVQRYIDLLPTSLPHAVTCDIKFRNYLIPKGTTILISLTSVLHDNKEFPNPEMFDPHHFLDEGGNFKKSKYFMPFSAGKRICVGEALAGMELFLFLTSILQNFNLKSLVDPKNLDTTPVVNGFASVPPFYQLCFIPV
Data set [17] in a line: Cmax in rat at 60 mg/kg, po. Type of data set: ADME, organism-based. Further details: dose 60 mg/kg, route oral. The conditions noted are these: in vivo.
Data set [18] can be described thus: Stability in human liver microsomes assessed as compound remaining after 30 mins. Type of data set: ADME, microsome. The note with it: read-out: Stability.
In data set [19] the test system is Mus musculus. Put plainly: Antidiabetic activity in db/db mouse model assessed as suppression of blood glucose increase at 60 mg/kg qd, po administered for 13 days. It is filed as functional, organism-based.
Data set [20] is described as follows: Half life in rat at 60 mg/kg, po. The note with it: in vivo. Type of data set: ADME, organism-based.
Data set [21] in a line: Stability in dog liver microsomes assessed as compound remaining after 30 mins. It is filed as ADME, Canis lupus familiaris, microsome. The conditions noted are these: read-out: Stability.
For data set [22], the target named is Voltage-gated inwardly rectifying potassium channel KCNH2 (Homo sapiens, UniProt Q12809). Put plainly: Inhibition of human ERG.
Voltage-gated inwardly rectifying potassium channel KCNH2, sequence (Q12809 whole entry): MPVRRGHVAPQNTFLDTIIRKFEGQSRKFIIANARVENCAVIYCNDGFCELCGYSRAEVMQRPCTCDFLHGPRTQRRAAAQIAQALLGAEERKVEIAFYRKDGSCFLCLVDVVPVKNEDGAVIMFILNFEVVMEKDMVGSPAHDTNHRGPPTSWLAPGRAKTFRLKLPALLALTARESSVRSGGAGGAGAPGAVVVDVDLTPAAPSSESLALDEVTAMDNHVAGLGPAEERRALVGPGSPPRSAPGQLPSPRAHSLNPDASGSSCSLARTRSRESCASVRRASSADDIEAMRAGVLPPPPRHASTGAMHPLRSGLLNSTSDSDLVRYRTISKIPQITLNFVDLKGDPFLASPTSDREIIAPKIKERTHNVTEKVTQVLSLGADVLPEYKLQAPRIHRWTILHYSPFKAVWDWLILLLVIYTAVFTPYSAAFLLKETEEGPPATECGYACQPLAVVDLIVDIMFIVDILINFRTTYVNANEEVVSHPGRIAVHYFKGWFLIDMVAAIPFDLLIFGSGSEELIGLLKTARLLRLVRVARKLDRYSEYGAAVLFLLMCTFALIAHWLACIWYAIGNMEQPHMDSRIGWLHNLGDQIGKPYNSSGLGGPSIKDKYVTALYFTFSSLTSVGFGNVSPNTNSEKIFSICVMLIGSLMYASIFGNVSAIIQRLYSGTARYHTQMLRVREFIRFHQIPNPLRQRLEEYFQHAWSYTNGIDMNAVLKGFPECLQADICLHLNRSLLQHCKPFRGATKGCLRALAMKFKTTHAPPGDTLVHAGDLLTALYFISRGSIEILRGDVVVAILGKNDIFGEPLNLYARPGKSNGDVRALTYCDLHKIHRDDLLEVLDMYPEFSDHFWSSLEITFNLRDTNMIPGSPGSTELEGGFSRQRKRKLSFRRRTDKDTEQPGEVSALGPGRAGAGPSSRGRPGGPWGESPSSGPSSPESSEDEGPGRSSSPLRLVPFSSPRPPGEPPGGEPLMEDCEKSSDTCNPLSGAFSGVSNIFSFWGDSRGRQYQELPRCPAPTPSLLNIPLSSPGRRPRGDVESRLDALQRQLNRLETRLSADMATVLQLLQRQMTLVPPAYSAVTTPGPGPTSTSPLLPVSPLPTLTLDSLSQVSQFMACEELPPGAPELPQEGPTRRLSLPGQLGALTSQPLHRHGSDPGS
Data set [23] deals with Rattus norvegicus. Put plainly: Antihypertensive activity in angiotensin 2 induced hypertension rat model at 30 mg/kg, po measured after 24 hrs relative to fimasartan. Type of data set: functional.
In data set [24] the target is T3, Type-1 angiotensin II receptor. Put plainly: Antagonist activity at type-1 angiotensin 2 receptor (unknown origin) by beta-arrestin recruitment assay. It is filed as functional. In general terms: Activated receptors often draw arrestin, which recruitment assays turn into a signal.
The next data set concerns the target T5, CYP1A2 (Homo sapiens, UniProt P05177).
T5 sequence (P05177 whole entry): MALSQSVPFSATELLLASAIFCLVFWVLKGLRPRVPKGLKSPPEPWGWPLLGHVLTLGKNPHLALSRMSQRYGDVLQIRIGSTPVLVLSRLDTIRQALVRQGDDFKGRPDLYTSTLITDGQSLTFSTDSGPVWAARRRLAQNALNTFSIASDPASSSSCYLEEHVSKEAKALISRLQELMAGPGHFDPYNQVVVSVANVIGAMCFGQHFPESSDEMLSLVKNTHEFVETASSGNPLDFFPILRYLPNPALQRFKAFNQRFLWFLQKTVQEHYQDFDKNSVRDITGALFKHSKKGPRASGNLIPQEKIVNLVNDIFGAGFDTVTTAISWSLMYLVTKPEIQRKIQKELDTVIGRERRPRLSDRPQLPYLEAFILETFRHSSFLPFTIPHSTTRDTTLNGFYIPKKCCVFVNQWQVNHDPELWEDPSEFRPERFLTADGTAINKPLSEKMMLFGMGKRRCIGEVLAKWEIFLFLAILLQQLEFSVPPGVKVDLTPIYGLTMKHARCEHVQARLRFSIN
Put plainly: Inhibition of CYP1A2 (unknown origin) assessed as remaining activity at 10 uM. Type of data set: ADME. The conditions noted are these: read-out: Activity.

The target of another data set is CYP2C19 (Homo sapiens, UniProt P33261). Put plainly: Inhibition of CYP2C19 (unknown origin) assessed as remaining activity at 10 uM. It is filed as ADME. The note with it: read-out: Activity.
CYP2C19, sequence (P33261 whole entry): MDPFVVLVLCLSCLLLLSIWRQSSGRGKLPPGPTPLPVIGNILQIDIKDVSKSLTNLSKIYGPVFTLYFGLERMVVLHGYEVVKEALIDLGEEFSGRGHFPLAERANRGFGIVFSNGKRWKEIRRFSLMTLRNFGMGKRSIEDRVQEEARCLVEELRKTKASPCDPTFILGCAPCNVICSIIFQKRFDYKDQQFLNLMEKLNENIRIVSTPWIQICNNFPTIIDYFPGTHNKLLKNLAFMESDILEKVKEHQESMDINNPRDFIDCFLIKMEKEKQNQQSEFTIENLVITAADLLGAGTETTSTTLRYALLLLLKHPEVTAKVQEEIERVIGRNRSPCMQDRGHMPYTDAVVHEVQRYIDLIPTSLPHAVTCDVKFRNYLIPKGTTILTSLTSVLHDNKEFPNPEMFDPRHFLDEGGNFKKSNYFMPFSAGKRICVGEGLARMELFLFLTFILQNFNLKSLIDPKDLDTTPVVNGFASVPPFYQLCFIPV
Data set [25] can be described thus: Stability in mouse liver microsomes assessed as compound remaining after 30 mins. It is filed as ADME, microsome. The conditions noted are these: read-out: Stability.

Structures are written as SMILES. Calls of active or inactive are those of the source. The calls are words filed in the database; no cut-off is given here.

In the case of `Cc1nc(C2CC2)n(Cc2ccc(-c3ccccc3-c3noc(=O)[nH]3)cc2)c(=O)c1CC(=S)N(C)C`, the inhibition (usually the share of the control response that was lost under treatment) in data set [1] was 9.5%.

Regarding `CCCCc1nc(C)c(CC(=S)N2CCOCC2)c(=O)n1Cc1ccc(-c2ccccc2-c2noc(=O)[nH]2)cc1`, the Activity in [2] was determined as 83%. Further, in [3], the IC50 (usually the concentration that gives 50% inhibition) was 5.6 nM.

Regarding `CCCc1nc(C)c(CC(=S)N(C)C)c(=O)n1Cc1ccc(-c2ccccc2-c2noc(=O)[nH]2)cc1`, the Activity in data set [2] is 100%. For the same compound, the IC50 in [3] came out at 4.7 nM.

Take `CCCCc1nc(C(C)C)c(CC(=S)N2CCCC2)c(=O)n1Cc1ccc(-c2ccccc2-c2noc(=O)[nH]2)cc1`: the values for the Tmax in [4] and in data set [5] were 0.5 h and 1.17 h, respectively. In addition, the Activity in data set [2] was 156%; in [9], 66%; with Mus musculus [15], “Non-Toxic”; with Rattus norvegicus [23], 50%. The results for the AUC(0-t) in data set [6] and in data set [7] were 2570 ng·h/mL and 13400 ng·h/mL, respectively. Also, in [8], the EC50 (in general, the concentration giving half of the maximal effect) stood at 3100 nM. Further, the activity at 10 µM was 99% on CYP2D6; 62% on CYP3A4; 36% at CYP2C9; 97% on CYP1A2; 84% at CYP2C19. Further, the Cmax (as a rule, the maximum level reached in the sampled fluid or tissue) amounted to 1860 ng/mL in [10] and 2570 ng/mL in data set [17]. For the same compound, the remaining at 0.5 h in [11] was 24%; in data set [18], 13%; in [21], 62%; in data set [25], 11%. For the same compound, the “Ratio AUC” value in data set [12] is on record as 4. The Activity result with Rattus norvegicus [13] and in the data set with Mus musculus [19] was “Active” in each case. For the same compound, the half-life – broadly, the time in which the quantity being followed falls by half – was 3.67 h in [14] and 4.73 h in [20]. In addition, the Time in the data set on Rattus norvegicus [16] is 16 h. Moreover, the IC50 in data set [22] was 7000 nM; in data set [3], 2.2 nM; in data set [24], 10.5 nM.

`CCCCc1nc(C)c(CC(=S)N2CCCC2)c(=O)n1Cc1ccc(-c2ccccc2-c2noc(=O)[nH]2)cc1` returned an Activity in [2] of 105%. In addition, the IC50 in data set [3] stood at 0.7 nM.

`CCCCc1nc(C)c(CC(=S)N(CC)CC)c(=O)n1Cc1ccc(-c2ccccc2-c2noc(=O)[nH]2)cc1` had an Activity in data set [2] of 61%. Further, in data set [3], the IC50 stood at 2 nM.

`Cc1nc(CC(C)C)n(Cc2ccc(-c3ccccc3-c3noc(=O)[nH]3)cc2)c(=O)c1CC(=S)N(C)C`: the inhibition in data set [1] was determined as 0%. Moreover, the Activity in data set [2] stood at 70%.

The compound `CCCCc1nc(C)c(CC(=S)N2CC[C@@H]3CCCC[C@H]32)c(=O)n1Cc1ccc(-c2ccccc2-c2noc(=O)[nH]2)cc1` had an Activity in data set [2] of 121%. The half-maximal inhibitory concentration (IC50) in data set [3] was 70 nM.

Consider `CCCCc1nc(C)c(CC(=S)N2Cc3ccccc3C2)c(=O)n1Cc1ccc(-c2ccccc2-c2noc(=O)[nH]2)cc1`, for which the Activity in data set [2] was 100%. In addition, the IC50 in data set [3] was 32 nM.

Regarding `CCCCc1nc(C)c(CC(=S)N2CCCC2C)c(=O)n1Cc1ccc(-c2ccccc2-c2noc(=O)[nH]2)cc1` (stereo unspecified), the Activity in [2] amounted to 107%. Besides, the IC50 in [3] was 1.2 nM.
